Source: the supplement of paper PMC10307832

Columns and labels:
[1] = compound: CC1=CC(=CC=C1)NC2=NC(=CS2)C3=CC=NC=C3 + CCNC(=O)c1noc(-c2cc(C(C)C)c(O)cc2O)c1-c1ccc(CN2CCOCC2)cc1 [Luminespib] (partner 0.01 µM); assay: relative viability (nuclei count vs DMSO), 5 days (fraction); higher = more cells survive
Outline: (§1)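 The day after seeding in 1536-well plates, lung cancer cell lines were treated by pin tool with a single drug, or with a fixed anchor-drug dose together with five library-drug doses (not always all listed) in √10 steps. After 5 days, a combined fix-and-stain solution (final 0.05% Triton X-100, 1% formaldehyde, 1 ug/ml Hoechst) was added. Nuclei counted on 4× images gave relative viability as treated counts over vehicle counts, reported as the median of duplicate plates.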

[2] = compound: CC1=CC(=CC=C1)NC2=NC(=CS2)C3=CC=NC=C3 + Cc1nc(Nc2ncc(C(=O)Nc3c(C)cccc3Cl)s2)cc(N2CCN(CCO)CC2)n1 [Dasatinib] (partner 0.075 µM); assay: as above
Outline: as §1

Cell Line	relative viability ([1]; first compound 0.08 µM)	relative viability ([1]; first compound 0.253 µM)	relative viability ([1]; first compound 0.8 µM)	relative viability ([1]; first compound 8 µM)	relative viability ([2]; first compound 0.08 µM)	relative viability ([2]; first compound 0.253 µM)	relative viability ([2]; first compound 0.8 µM)	relative viability ([2]; first compound 2.53 µM)	relative viability ([2]; first compound 8 µM)	relative viability ([1]; first compound 2.53 µM)
NCI-H522	1.25	1.07	1.34	1.28	0.851	0.792	0.933	0.809	0.983	–
HCC-15	0.386	0.299	0.475	0.274	0.467	0.469	0.589	0.499	0.53	0.31
A-427	0.738	0.916	0.918	0.866	0.61	0.658	0.681	0.681	0.518	0.729
NCI-H23	0.208	0.184	0.208	0.22	0.74	0.542	0.741	0.714	0.792	0.221
NCI-H1755	0.519	0.46	0.428	0.486	0.331	0.417	0.355	0.185	0.321	0.37
LU99A	0.256	0.213	0.242	0.254	0.543	0.525	0.521	0.517	0.479	0.302
PC-3 [JPC-3]	0.715	0.723	0.532	0.629	0.974	0.95	0.881	0.87	0.939	0.633
NCI-H1975	0.252	0.17	0.201	0.184	0.366	0.353	0.295	0.22	0.165	0.249
HCC-366	–	–	–	–	0.543	0.567	0.625	0.48	0.365	–
NCI-H1793	0.182	0.177	0.177	0.344	0.343	0.365	0.454	0.459	0.356	0.202
NCI-H727	–	0.373	0.378	0.402	–	0.425	0.517	0.383	0.398	0.374
RERF-LC-KJ	1.06	1.19	0.982	0.717	0.533	0.694	0.64	0.573	0.515	0.999
NCI-H1623	0.496	0.453	0.369	0.391	0.525	0.506	0.625	0.521	0.575	0.371
LC-2-ad	0.858	–	1.09	0.965	0.522	–	0.59	0.431	0.478	0.768
CAL-12T	0.399	0.355	0.335	0.29	0.423	0.321	0.332	0.299	0.245	0.513
SK-LU-1	0.205	0.223	–	0.227	0.144	0.201	–	0.219	0.224	0.183
NCI-H1651	1.16	0.893	0.875	0.74	0.26	0.377	0.553	0.385	0.415	0.706

Cell Line	relative viability ([1]; first compound 0.08 µM)	relative viability ([1]; first compound 0.253 µM)	relative viability ([1]; first compound 0.8 µM)	relative viability ([1]; first compound 8 µM)	relative viability ([2]; first compound 0.08 µM)	relative viability ([2]; first compound 0.253 µM)	relative viability ([2]; first compound 0.8 µM)	relative viability ([2]; first compound 2.53 µM)	relative viability ([2]; first compound 8 µM)	relative viability ([1]; first compound 2.53 µM)
BEN	0.424	0.174	0.488	0.356	0.304	0.273	0.364	0.222	0.327	0.267
EMC-BAC-2	1.15	1.23	1.15	1.13	0.279	0.312	0.293	0.306	0.332	1.1
LXF-289	0.655	0.649	0.573	0.69	0.194	0.214	0.224	0.183	0.159	0.646
ABC-1	0.447	0.766	0.492	0.647	0.659	0.473	0.552	0.445	0.404	0.676
NCI-H358	0.286	0.605	0.305	0.231	0.214	0.173	0.182	0.185	0.263	0.436
NCI-H1355	0.64	0.583	0.375	0.502	0.399	0.463	0.341	0.386	0.375	0.477
NCI-H2405	0.583	0.589	0.63	0.64	0.202	0.176	0.15	0.16	0.22	0.666
NCI-H2009	1.01	0.953	0.905	1.05	0.249	0.308	0.264	0.299	0.312	0.988
NCI-H441	0.411	0.328	0.411	0.384	0.584	0.482	0.834	0.585	0.585	0.391
PC-14	0.143	0.183	0.171	0.138	0.237	0.247	0.27	0.225	0.178	0.123
HARA	0.494	0.872	0.496	0.359	0.194	0.269	0.399	0.281	0.278	0.684
NCI-H2126	0.825	0.855	0.9	0.865	0.533	0.433	0.505	0.466	0.4	0.875
NCI-H1563	0.488	0.546	0.546	0.541	0.48	0.41	0.498	0.404	0.434	0.506
NCI-H2342	0.746	0.717	0.771	0.676	0.306	0.303	0.302	0.278	0.311	0.67
NCI-H1915	0.897	0.857	0.833	0.776	0.282	0.328	0.289	0.318	0.328	0.787
ChaGo-K-1	0.525	0.605	0.57	0.372	0.547	0.675	0.605	0.49	0.54	0.589
NCI-H661	0.887	0.963	0.885	0.863	0.686	0.862	0.892	0.774	0.808	0.887
